Measured values from ChEMBL document CHEMBL3045391, “Synthesis and biological evaluation of 5,7-diaryl-4,4-dimethyl-4,5,6,7-tetrahydropyridino[3,4-d]-1,2,3-thiadiazoles” (2007).
Calls of active or inactive are those of the source. The rule behind the calls is not given here.

Columns and labels:
[1] = test system: Shigella flexneri; test: Antibacterial activity against Shigella flexneri at 200 ppm after 24 hr by disk diffusion method; format: functional; settings: read-out: IZ
[2] = test system: Mucor; test: Antifungal activity against Mucor at 500 ppm after 72 to 96 hr by disk diffusion method; format: functional; settings: read-out: IZ
[3] = test system: Salmonella typhi; test: Antibacterial activity against Salmonella enterica subsp. enterica serovar Typhi at 100 ppm after 24 hr by disk diffusion method; format: functional
[4] = test system: Aspergillus flavus; test: Antifungal activity against Aspergillus flavus at 100 ppm after 72 to 96 hr by disk diffusion method; format: functional; settings: read-out: IZ
[5] = test system: Pseudomonas; test: Antibacterial activity against Pseudomonas at 200 ppm after 24 hr by disk diffusion method; format: functional; settings: read-out: IZ
[6] = test system: Aspergillus flavus; test: Antifungal activity against Aspergillus flavus at 200 ppm after 72 to 96 hr by disk diffusion method; format: functional; settings: read-out: IZ
[7] = test system: Salmonella typhi; test: Antibacterial activity against Salmonella enterica subsp. enterica serovar Typhi at 500 ppm after 24 hr by disk diffusion method; format: functional; settings: read-out: IZ
[8] = test system: Escherichia coli; test: Antibacterial activity against Escherichia coli at 200 ppm after 24 hr by disk diffusion method; format: functional; settings: read-out: IZ
[9] = test system: Mucor; test: Antifungal activity against Mucor at 100 ppm after 72 to 96 hr by disk diffusion method; format: functional
[10] = test system: Escherichia coli; test: Antibacterial activity against Escherichia coli at 100 ppm after 24 hr by disk diffusion method; format: functional, organism-based
[11] = test system: Klebsiella pneumoniae; test: Antibacterial activity against Klebsiella pneumoniae at 100 ppm after 24 hr by disk diffusion method; format: functional; settings: read-out: IZ
[12] = test system: Rhizopus; test: Antifungal activity against Rhizopus at 100 ppm after 72 to 96 hr by disk diffusion method; format: functional
[13] = test system: Mucor; test: Antifungal activity against Mucor at 200 ppm after 72 to 96 hr by disk diffusion method; format: functional; settings: read-out: IZ
[14] = test system: Nannizzia gypsea; test: Antifungal activity against Microsporum gypseum at 100 ppm after 72 to 96 hr by disk diffusion method; format: functional; settings: read-out: IZ
[15] = test system: Nannizzia gypsea; test: Antifungal activity against Microsporum gypseum at 200 ppm after 72 to 96 hr by disk diffusion method; format: functional; settings: read-out: IZ
[16] = test system: Klebsiella pneumoniae; test: Antibacterial activity against Klebsiella pneumoniae at 200 ppm after 24 hr by disk diffusion method; format: functional; settings: read-out: IZ
[17] = test system: Streptococcus; test: Antibacterial activity against beta-hemolytic Streptococcus at 500 ppm after 24 hr by disk diffusion method; format: functional; settings: read-out: IZ
[18] = test system: Vibrio cholerae; test: Antibacterial activity against Vibrio cholerae at 500 ppm after 24 hr by disk diffusion method; format: functional; settings: read-out: IZ
[19] = test system: Rhizopus; test: Antifungal activity against Rhizopus at 200 ppm after 72 to 96 hr by disk diffusion method; format: functional; settings: read-out: IZ
[20] = test system: Rhizopus; test: Antifungal activity against Rhizopus at 500 ppm after 72 to 96 hr by disk diffusion method; format: functional; settings: read-out: IZ
[21] = test system: Staphylococcus aureus; test: Antibacterial activity against Staphylococcus aureus at 200 ppm after 24 hr by disk diffusion method; format: functional; settings: read-out: IZ
[22] = test system: Staphylococcus aureus; test: Antibacterial activity against Staphylococcus aureus at 500 ppm after 24 hr by disk diffusion method; format: functional; settings: read-out: IZ
[23] = test system: Nannizzia gypsea; test: Antifungal activity against Microsporum gypseum at 500 ppm after 72 to 96 hr by disk diffusion method; format: functional; settings: read-out: IZ
[24] = test system: Pseudomonas; test: Antibacterial activity against Pseudomonas at 500 ppm after 24 hr by disk diffusion method; format: functional; settings: read-out: IZ
[25] = test system: Salmonella typhi; test: Antibacterial activity against Salmonella enterica subsp. enterica serovar Typhi at 200 ppm after 24 hr by disk diffusion method; format: functional; settings: read-out: IZ
[26] = test system: Shigella flexneri; test: Antibacterial activity against Shigella flexneri at 100 ppm after 24 hr by disk diffusion method; format: functional; settings: read-out: IZ
[27] = test system: Pseudomonas; test: Antibacterial activity against Pseudomonas at 100 ppm after 24 hr by disk diffusion method; format: functional
[28] = test system: Staphylococcus aureus; test: Antibacterial activity against Staphylococcus aureus at 100 ppm after 24 hr by disk diffusion method; format: functional
[29] = test system: Vibrio cholerae; test: Antibacterial activity against Vibrio cholerae at 100 ppm after 24 hr by disk diffusion method; format: functional; settings: read-out: IZ
[30] = test system: Vibrio cholerae; test: Antibacterial activity against Vibrio cholerae at 200 ppm after 24 hr by disk diffusion method; format: functional; settings: read-out: IZ
[31] = test system: Klebsiella pneumoniae; test: Antibacterial activity against Klebsiella pneumoniae at 500 ppm after 24 hr by disk diffusion method; format: functional; settings: read-out: IZ
[32] = test system: Aspergillus flavus; test: Antifungal activity against Aspergillus flavus at 500 ppm after 72 to 96 hr by disk diffusion method; format: functional; settings: read-out: IZ
[33] = test system: Shigella flexneri; test: Antibacterial activity against Shigella flexneri at 500 ppm after 24 hr by disk diffusion method; format: functional; settings: read-out: IZ
[34] = test system: Escherichia coli; test: Antibacterial activity against Escherichia coli at 500 ppm after 24 hr by disk diffusion method; format: functional; settings: read-out: IZ
[35] = test system: Streptococcus; test: Antibacterial activity against beta-hemolytic Streptococcus at 200 ppm after 24 hr by disk diffusion method; format: functional; settings: read-out: IZ
[36] = test system: Streptococcus; test: Antibacterial activity against beta-hemolytic Streptococcus at 100 ppm after 24 hr by disk diffusion method; format: functional, organism-based

Row | Structure (SMILES) | zone of inhibition at 200 ppm [1] | zone of inhibition at 500 ppm [2] | zone of inhibition at 100 ppm [4] | zone of inhibition at 200 ppm [5] | zone of inhibition at 200 ppm [6] | zone of inhibition at 500 ppm [7] | zone of inhibition at 200 ppm [8] | inhibition zone (IZ) [9] | inhibition zone (IZ) [10] | zone of inhibition at 100 ppm [11] | zone of inhibition at 200 ppm [13] | zone of inhibition at 100 ppm [14] | zone of inhibition at 200 ppm [15] | zone of inhibition at 200 ppm [16] | zone of inhibition at 500 ppm [17] | zone of inhibition at 500 ppm [18] | zone of inhibition at 200 ppm [19] | zone of inhibition at 500 ppm [20] | zone of inhibition at 200 ppm [21] | zone of inhibition at 500 ppm [22] | further results
1 | CC1(C)c2nnsc2C(c2ccc(Cl)cc2)NC1c1ccc(Cl)cc1 (configuration not stated) | 12 mm | 12 mm | 12 mm | 12 mm | 12 mm | 17 mm | 12 mm | inactive | inactive | 12 mm | 12 mm | 12 mm | 17 mm | 17 mm | 30 mm | 12 mm | 12 mm | 22 mm | 22 mm | 30 mm | inhibition zone (IZ) [3]: inactive; inhibition zone (IZ) [12]: inactive; zone of inhibition at 500 ppm [23]: 22 mm; zone of inhibition at 500 ppm [24]: 12 mm; zone of inhibition at 200 ppm [25]: 17 mm; zone of inhibition at 100 ppm [26]: 12 mm; inhibition zone (IZ) [27]: inactive; zone of inhibition at 100 ppm ([28]; read-out: IZ): 12 mm; zone of inhibition at 100 ppm [29]: 12 mm; zone of inhibition at 200 ppm [30]: 12 mm; zone of inhibition at 500 ppm [31]: 22 mm; zone of inhibition at 500 ppm [32]: 17 mm; zone of inhibition at 500 ppm [33]: 12 mm; zone of inhibition at 500 ppm [34]: 17 mm; zone of inhibition at 200 ppm [35]: 12 mm; inhibition zone (IZ) [36]: inactive
2 | CC1(C)c2nnsc2C(c2ccc(F)cc2)NC1c1ccc(F)cc1 (configuration not stated) | 17 mm | 17 mm | 12 mm | 17 mm | 17 mm | 12 mm | 17 mm | inactive | inactive | 17 mm | 17 mm | 17 mm | 22 mm | 17 mm | 22 mm | 17 mm | 22 mm | 22 mm | 22 mm | 30 mm | zone of inhibition at 100 ppm ([3]; read-out: IZ): 12 mm; zone of inhibition at 100 ppm ([12]; read-out: IZ): 12 mm; zone of inhibition at 500 ppm [23]: 30 mm; zone of inhibition at 500 ppm [24]: 17 mm; zone of inhibition at 200 ppm [25]: 12 mm; zone of inhibition at 100 ppm [26]: 12 mm; inhibition zone (IZ) [27]: inactive; inhibition zone (IZ) [28]: inactive; zone of inhibition at 100 ppm [29]: 12 mm; zone of inhibition at 200 ppm [30]: 17 mm; zone of inhibition at 500 ppm [31]: 22 mm; zone of inhibition at 500 ppm [32]: 17 mm; zone of inhibition at 500 ppm [33]: 17 mm; zone of inhibition at 500 ppm [34]: 17 mm; zone of inhibition at 200 ppm [35]: 17 mm; inhibition zone (IZ) [36]: inactive
